These results are taken from ChEMBL document CHEMBL4765407, “Design, synthesis and high antitumor potential of new unsymmetrical bisacridine derivatives towards human solid tumors, specifically pancreatic cancers and their unique ability to stabilize DNA G-quadruplexes” (Eur J Med Chem, 2020).

Series [1] deals with DU-145. Nature of the series: Cytotoxicity against human DU-145 cells assessed as reduction in cell viability measured after 72 hrs by SRB assay. The class given is functional, cell-based. The following applies: DU-145, 72 h. A general note: The SRB assay estimates cell density from bound dye.
For a further series, the system named is HCT-116. The experiment in a line: Cytotoxicity against human HCT-116 cells assessed as reduction in cell viability measured after 72 hrs by SRB assay. The series is classed as functional, cell-based. The following applies: HCT-116, 72 h.
For series [2], the system named is PANC-1. Nature of the series: Cytotoxicity against human PANC-1 cells assessed as reduction in cell viability measured after 72 hrs by SRB assay. The series is classed as functional, cell-based. The following applies: PANC-1, 72 h.
Series [3] concerns MIA PaCa-2. The experiment in a line: Cytotoxicity against human MIA PaCa-2 cells assessed as reduction in cell viability measured after 72 hrs by SRB assay. The series is classed as functional, cell-based. The following applies: MIA PaCa-2, 72 h.
Series [4] has as its system BXPC-3. Nature of the series: Cytotoxicity against human BXPC-3 cells assessed as reduction in cell viability measured after 72 hrs by SRB assay. The series is classed as functional, cell-based. Conditions: BXPC-3, 72 h.
In series [5] the test system is ASPC1. The experiment in a line: Cytotoxicity against human ASPC1 cells assessed as reduction in cell viability measured after 72 hrs by SRB assay. The series is classed as functional, cell-based. Conditions: ASPC1, 72 h.
For series [6], the system named is PANC-1. Nature of the series: Antitumour activity against human PANC-1 cells xenografted in Crl:Nu-Foxnl nu mouse assessed as inhibition of tumour growth at total effective dose of 160 mg/kg, iv measured on day 40. The following applies: PANC-1, iv, 960 h, time 40 day, read-out: TGI. The series is classed as functional.
Series [7] concerns BXPC-3. Nature of the series: Antitumour activity against human BXPC-3 cells xenografted in Crl:Nu-Foxnl nu mouse assessed as inhibition of tumour growth at total effective dose of 160 mg/kg, iv measured on day 29. The following applies: BXPC-3, iv, 696 h, time 29 day, read-out: TGI. The class given is functional.
Series [8] relates to Quadruplex DNA. Nature of the series: Stabilization of 5'-FAM/3'-TAMRA labeled c-Myc promoter G4 quadruplex DNA FPu18 (unknown origin) assessed as change in melting temperature at 10 microM measured after 15 mins by FRET assay. The class given is nucleic-acid assay.
Series [9] has as its system Quadruplex DNA. Nature of the series: Stabilization of 5'-FAM/3'-TAMRA labeled telomeric G4 quadruplex DNA F21T (unknown origin) assessed as change in melting temperature at 10 microM measured after 15 mins by FRET assay. The class given is nucleic-acid assay.
Series [10] relates to Quadruplex DNA. Nature of the series: Stabilization of 5'-FAM/3'-TAMRA labeled K-Ras G4 quadruplex DNA (unknown origin) assessed as change in melting temperature at 10 microM measured after 15 mins by FRET assay. The series is classed as nucleic-acid assay.
Series [11] in a line: Stabilization of ds 5'-FAM-d(TATAGCTATA-HEG-TATAGCTATA)-TAMRA-3' (unknown origin) assessed as change in melting temperature at 10 microM measured after 15 mins by FRET assay. Conditions: Homo sapiens.
Series [12] is described as follows: Toxicity in BALB/c mouse assessed as macroscopic anatomopathological changes at total dose of 120 mg/kg, iv administered as 3 times per week for 2 weeks measured for 65 days. The series is classed as organism-based. The following applies: in vivo, 1560 h, time 65 day.
Series [13] can be described thus: Toxicity in BALB/c mouse assessed as effect on body weight at total dose of 120 mg/kg, iv administered as 3 times per week for 2 weeks measured for 65 days. The series is classed as organism-based. The following applies: in vivo, 1560 h, time 65 day.
In another series the test system is NCI-H460. The experiment in a line: Cytotoxicity against human NCI-H460 cells assessed as reduction in cell viability measured after 72 hrs by SRB assay. The series is classed as functional, cell-based. Conditions: NCI-H460, 72 h.
For series [14], the system named is MDA-MB-231. Nature of the series: Cytotoxicity against human MDA-MB-231 cells assessed as reduction in cell viability measured after 72 hrs by SRB assay. The class given is functional, cell-based. Conditions: MDA-MB-231, 72 h.
A further series has as its system Capan-2. Nature of the series: Cytotoxicity against human Capan-2 cells assessed as reduction in cell viability measured after 72 hrs by SRB assay. Conditions: Capan-2, 72 h. The class given is functional, cell-based.
The subject of series [15] is PANC-1. Nature of the series: Antitumour activity against human PANC-1 cells xenografted in Crl:Nu-Foxnl nu mouse assessed as inhibition of tumour growth at total effective dose of 80 mg/kg, iv measured on day 56. The class given is functional. Conditions: PANC-1, iv, 1344 h, time 56 day, read-out: TGI.
Series [16] deals with MIA PaCa-2. Nature of the series: Antitumour activity against human MIA PaCa-2 cells xenografted in Crl:Nu-Foxnl nu mouse assessed as inhibition of tumour growth at total effective dose of 20 mg/kg, ip measured on day 33. The class given is functional. The following applies: MIA PaCa-2, ip, 792 h, time 33 day, read-out: TGI. A general note: Xenograft models place foreign cells or tissue in a host animal.

Series [17] has as its system BXPC-3. Nature of the series: Antitumour activity against human BXPC-3 cells xenografted in Crl:Nu-Foxnl nu mouse assessed as inhibition of tumour growth at total effective dose of 80 mg/kg, iv measured on day 32. The class given is functional. The following applies: BXPC-3, iv, 768 h, time 32 day, read-out: TGI.
The test system of series [18] is PANC-1. The experiment in a line: Antitumour activity against human PANC-1 cells xenografted in Crl:Nu-Foxnl nu mouse assessed as inhibition of tumour growth at total effective dose of 48 mg/kg, iv measured on day 32. The class given is functional. The following applies: PANC-1, iv, 768 h, time 32 day, read-out: TGI.
Series [19] in a line: Toxicity in BALB/c mouse assessed as effect on body weight at 60 mg/kg, iv administered as single dose measured for 64 days. The following applies: in vivo, 1536 h, time 64 day. The series is classed as organism-based.
Series [20] in a line: Toxicity in BALB/c mouse assessed as macroscopic anatomopathological changes at 60 mg/kg, iv administered as single dose measured for 64 days. The class given is organism-based. Conditions: in vivo, 1536 h, time 64 day.
In another series the test system is MCF7. The experiment in a line: Cytotoxicity against human MCF7 cells assessed as reduction in cell viability measured after 72 hrs by SRB assay. The following applies: MCF7, 72 h. The class given is functional, cell-based.
The subject of series [21] is PANC-1. Nature of the series: Antitumour activity against human PANC-1 cells xenografted in Crl:Nu-Foxnl nu mouse assessed as inhibition of tumour growth at total effective dose of 16 mg/kg, iv measured on day 33. The class given is functional. Conditions: PANC-1, iv, 792 h, time 33 day, read-out: TGI.
For series [22], the system named is MIA PaCa-2. The experiment in a line: Antitumour activity against human MIA PaCa-2 cells xenografted in Crl:Nu-Foxnl nu mouse assessed as inhibition of tumour growth at total effective dose of 12 mg/kg, ip measured on day 15. The class given is functional. The following applies: MIA PaCa-2, ip, 360 h, time 15 day, read-out: TGI.
Series [23] deals with BXPC-3. Nature of the series: Antitumour activity against human BXPC-3 cells xenografted in Crl:Nu-Foxnl nu mouse assessed as inhibition of tumour growth at total effective dose of 16 mg/kg, iv measured on day 44. The series is classed as functional. The following applies: BXPC-3, iv, 1056 h, time 44 day, read-out: TGI.
In series [24] the test system is BXPC-3. Nature of the series: Antitumour activity against human BXPC-3 cells xenografted in Crl:Nu-Foxnl nu mouse assessed as inhibition of tumour growth at total effective dose of 16 mg/kg, iv measured on day 32. Conditions: BXPC-3, iv, 768 h, time 32 day, read-out: TGI. The class given is functional.
Series [25] has as its system ASPC1. Nature of the series: Antitumour activity against human ASPC1 cells xenografted in Crl:Nu-Foxnl nu mouse assessed as inhibition of tumour growth at total effective dose of 16 mg/kg, iv measured on day 39. The series is classed as functional. Conditions: 936 h, time 39 day, read-out: TGI.
Series [26] deals with DU-145. The experiment in a line: Antitumour activity against human DU-145 cells xenografted in Crl:Nu-Foxnl nu mouse assessed as inhibition of tumour growth at total effective dose of 16 mg/kg, iv measured on day 33. The series is classed as functional. The following applies: DU-145, iv, 792 h, time 33 day, read-out: TGI.
Series [27] relates to MDA-MB-231. The experiment in a line: Antitumour activity against human MDA-MB-231 cells xenografted in Crl:Nu-Foxnl nu mouse assessed as inhibition of tumour growth at total effective dose of 32 mg/kg, iv measured on day 32. The series is classed as functional. The following applies: MDA-MB-231, iv, 768 h, time 32 day, read-out: TGI.
Series [28] is described as follows: Toxicity in BALB/c mouse assessed as effect on body weight at total dose of 6 mg/kg, iv administered as 3 times per week for 2 weeks measured for 71 days. The class given is organism-based. The following applies: in vivo, 1704 h, time 71 day.
Series [29] is described as follows: Toxicity in BALB/c mouse assessed as macroscopic anatomopathological changes at total dose of 6 mg/kg, iv administered as 3 times per week for 2 weeks measured for 71 days. The class given is organism-based. The following applies: in vivo, 1704 h, time 71 day.

With `Cc1cc(C(N)CCN2CCN(CCCNc3ccc4ncn5c6ccccc6c(=O)c3c45)CC2)c([N+](=O)[O-])c2cc3ccccc3nc12` (stereo unspecified), the IC50 (usually the concentration that inhibits the measured activity by half) in the series on DU-145 [1] came out at 62 nM; in the series on HCT-116, 45 nM; in the series with PANC-1 [2], 65 nM; with MIA PaCa-2 [3] it was 58 nM; with BXPC-3 [4] it was 351 nM; in the series with ASPC1 [5] it was 240 nM. Moreover, the inhibition in vivo at 160 mg/kg in the series on PANC-1 [6] was found to be 64%; with BXPC-3 [7], 40%. For the same compound, the thermal shift (ΔTm) – broadly, the shift of the melting midpoint relative to a reference – in the series with Quadruplex DNA [8] came to 27 °C; with Quadruplex DNA [9], 19.2 °C; in the series on Quadruplex DNA [10] it was 19.9 °C; in series [11] it was 3.6 °C. For the same compound, the Activity entry in series [12] and in series [13] was “Non-Toxic” each time.
With `Cc1cc(NCCCN(C)CCCNc2ccc3ncn4c5ccc(O)cc5c(=O)c2c34)c([N+](=O)[O-])c2cc3ccccc3nc12`, the IC50 amounted to 59 nM in the series on DU-145 [1]; 95 nM in the series with NCI-H460; 40 nM in the series with HCT-116; 52 nM in the series on MDA-MB-231 [14]; 216 nM with PANC-1 [2]; 59 nM with MIA PaCa-2 [3]. Moreover, the IC50 is 169 nM with BXPC-3 [4], 152 nM with ASPC1 [5] and 52 nM in the series with Capan-2. For the same compound, the inhibition in vivo at 80 mg/kg turned out to be 64% with PANC-1 [15] and 77% with BXPC-3 [17]. In the series on MIA PaCa-2 [16], the inhibition in vivo at 20 mg/kg was 55%. Besides, the inhibition in vivo at 48 mg/kg with PANC-1 [18] is 63%. Besides, the Activity entry in series [19] and in series [20] was “Non-Toxic” each time. In addition, the ΔTm was determined as 27.6 °C with Quadruplex DNA [8], 18.3 °C in the series with Quadruplex DNA [9], 10.7 °C in the series with Quadruplex DNA [10] and 2.8 °C in [11].
With `O=c1c2ccccc2n2cnc3ccc(NCCCN4CCN(CCCNc5c6ccccc6nc6cccc([N+](=O)[O-])c56)CC4)c1c32`, the IC50 in the series on DU-145 [1] came out at 22 nM; in the series on NCI-H460, 15 nM; in the series with HCT-116, 25 nM; in the series with MCF7, 82 nM; with MDA-MB-231 [14], 21 nM; in the series with PANC-1 [2] it was 24 nM. The IC50 came out at 39 nM in the series on MIA PaCa-2 [3], 54 nM with BXPC-3 [4], 69 nM in the series on ASPC1 [5] and 32 nM in the series with Capan-2. The inhibition in vivo at 16 mg/kg with PANC-1 [21] came out at 80%; with BXPC-3 [23], 81%; with BXPC-3 [24], 48%; with ASPC1 [25] it was 29%; in the series with DU-145 [26] it was 61%. Also, the inhibition in vivo at 12 mg/kg in the series with MIA PaCa-2 [22] worked out at 38%. Also, the inhibition in vivo at 32 mg/kg in the series with MDA-MB-231 [27] stood at 53%. Further, the Activity entry in [28] and in series [29] was “Non-Toxic” each time. Also, the ΔTm in the series with Quadruplex DNA [8] is 23.3 °C; in the series with Quadruplex DNA [9] it was 30 °C; with Quadruplex DNA [10], 27.6 °C; in series [11] it was 5.4 °C.
